Test results published in US11371994B2, “Phosphorylated Akt-specific capture agents, compositions, and methods of using and making” (California Institute of Technology, priority 2013, dated 2022).
Values joined by “and” are separate entries in the source; they are usually repeats but may differ in a detail not shown here. Equal entries are not always repeated. “Also recorded” adds a separate entry of the source.

Assays:
Akt2 [1] = molecular target: T1, Akt2 (Homo sapiens, UniProt P31751); experiment: Non-radioactive kinase assay, phosphorylation of GSK-3α/β fusion protein; assay type: biochemical; set-up: purchased Abcam; settings: for influence on Akt2 kinase activity (p-GSK-3α/β level): relative to DMSO control
Description: The non-radioactive kinase assay kit for Akt2 was purchased from Cell Signaling. Ligand solutions were made in DMSO. Kinase reactions were set up in 1× kinase buffer (25 mM trisHCl (pH 7.5), 10 mM MgCl2, 0.01% Triton-X, 1× Complete protease inhibitor (Roche), 1× Phosstop phosphatase inhibitor (Roche)), each 25 μL reaction mixture containing 400 ng Akt2, 400 ng GST-GSK-3α/β fusion protein, […] and 0.5 μL of peptide solutions in DMSO or DMSO only. Reactions were allowed to proceed for 30 minutes at 30° C. A reaction mixture was also prepared using a 1:2.5 dilution of anti pS473 antibody (Cell Signaling) in the kinase buffer instead of the peptide ligand or DMSO. The reactions were quenched by adding 12.5 μL of 2×SDS sample loading buffer and heating at 95° C. for five minutes. 10 μL from each sample was loaded on an any kD SDS gel (BioRad) and run for an hour at 110 volts. Following semidry transfer of the gel to a nitrocellulose membrane, the membrane was blocked in 5% nonfat milk/TBST for an hour at 4° C., and treated overnight at 4° C. with a 1:200 dilution of Phospho GSK-3α/β Ser (21/9) rabbit antibody (Cell Signaling) in 0.5% milk/TBST. Following washes, the membrane was treated with a 1:2000 dilution of mouse anti-rabbit-HRP antibody for an hour at 4° C. After four five minute washes with TBST, and one five minute wash with TBS, the membrane was treated with West Dura ECL substrate (Thermo Scientific) and imaged on film.

[2] = molecular target: T2, target peptide epitope (Akt2 450-481, pS474) (Homo sapiens, UniProt P31751); experiment: ELISA of C terminal triligand candidates binding to the target peptide epitope; settings: listed as C-t1
T2 construct: made in house; host or cells: chemical solid-phase peptide synthesis (Rink Amide MBHA resin)
T2 sequence (P31751 450-481 limits assumed): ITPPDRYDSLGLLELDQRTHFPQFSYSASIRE
Description: Selection of the final C terminal triligand C-tL: Four triligand candidates were synthesized with (L-Az4)-hdGGf (SEQ ID NO:25) […], (L-Az4)-hdGsf (SEQ ID NO:74) (C-t2), (L-Az4)-hdGww (SEQ ID NO:67) (C-t3), (L-Az4)-hdGkf (SEQ ID NO:77) (C-t4) as the 3° peptide arm. Binding of the candidates to the target peptide epitope was determined in an ELISA assay (FIG. 20C) and the ligand C-t1 emerged as the best binder. C-t1 was chosen as the C terminal triligand C-tL.
(§1) 1.25 μM biotinylated ligand was prepared by diluting the 1 mM stock in binding buffer (25 mM tris chloride, pH=7.4, 150 mM NaCl, 0.1% BSA, 0.05% Tween 20). The prepared ligand solution or 0.125% DMSO in buffer (buffer control) was immobilized on a High Capacity Streptavidin 96 well plate (Thermo Scientific). After washing away the excess ligand, the plate was blocked overnight with 1% BSA/25 mM tris chloride, pH=7.4/150 mM NaCl, 0.05% Tween 20. 2.5 μM solutions of the His6 (SEQ ID NO:28) tagged target phosphopeptide epitope Akt2 amino acids 450-481, His6 (SEQ ID NO:28) tagged Akt1 amino acids 449-480, His6 (SEQ ID NO:28) tagged Akt3 amino acids 448-479 were added to each of the wells. […] The A450 measured on a 96-well plate reader. The Net A450 was obtained by subtracting the absorbance value for the blank control (no immobilized ligand) from each of the triplicate values obtained for the ligand-epitope interaction. […]

Akt2 epitope (450-481) = molecular target: T3, Akt2 epitope (450-481) (Homo sapiens, UniProt P31751); experiment: Epitope selectivity ELISA with His6 tagged C-terminal 32-mer fragments; assay type: binding; settings: peptide fragments; set also full protein level
T3 construct: made in house; host or cells: chemical solid-phase peptide synthesis (Rink Amide MBHA resin)
T3 sequence (P31751 450-481 limits assumed): T2 sequence (P31751 450-481 limits assumed)
Description: as §1, with “wells. Following three washes with the binding buffer, the plate was treated for an hour with a 1:1000 dilution of anti His6 (SEQ ID NO:28) mouse monoclonal antibody. A 1:10,000 dilution of goat anti mouse antibody-Horse Radish Peroxide conjugate in binding buffer was added to the wells. The plates were washed four times, five minutes each, with 0.05% Tween 20/TBS (25 mM tris chloride, pH=7.5, 150 mM NaCl) and once with TBS (25 mM tris chloride, pH=7.5, 150 mM NaCl).” for “wells.”

Akt2 [3] = molecular target: T1, Akt2; experiment: Single component ELISA, PCC agent as capture or detection agent (relative affinity); assay type: binding; set-up: purchased Abcam; settings: for EC50: read-out: EC50 from single component ELISA
Description: FIG. 23: A. ELISA assays in which the PCC Agents are utilized as either as surface-localized capture agents (for N-tL, C-tL) or as the detection agent (for mono-L, bi-L). Such assays provide relative affinity measurements, which are given as EC50 values in the key. […] C. C-tL distinguishes the full length Akt2 from isoform proteins Akt1 and Akt3. D. The 32 amino acid long C terminal fragment from Akt2, Akt1 and Akt3. The hydrophobic motif is highlighted in blue. pS refers to phospho-serine. […] F. Selectivity assays: Biotinylated ligands or biotinylated pS473 antibody is immobilized on streptavidin-agarose and treated with OVCAR3 cell lysate. The eluents are stained with a pan-Akt antibody or pS473 Akt antibody.
1.25 μM biotinylated ligand was prepared by diluting the 1 mM stock in binding buffer (25 mM tris chloride, pH=7.4, 150 mM NaCl, 0.1% BSA, 0.05% Tween 20). The prepared ligand solution or 0.125% DMSO in buffer (buffer control) was immobilized on a High Capacity Streptavidin 96 well plate (Thermo Scientific). After washing away the excess ligand, the plate was blocked overnight with 1% BSA/25 mM tris chloride, pH=7.4/150 mM NaCl, 0.05% Tween 20. 2.5 μM solutions of the His6 (SEQ ID NO:28) tagged target phosphopeptide epitope Akt2 amino acids 450-481, His6 (SEQ ID NO:28) tagged Akt1 amino acids 449-480, His6 (SEQ ID NO:28) tagged Akt3 amino acids 448-479 were added to each of the wells. Following three washes with the binding buffer, the plate was treated for an hour with a 1:1000 dilution of anti His6 (SEQ ID NO:28) mouse monoclonal antibody. A 1:10,000 dilution of goat anti mouse antibody-Horse Radish Peroxide conjugate in binding buffer was added to the wells. The plates were washed four times, five minutes each, with 0.05% Tween 20/TBS (25 mM tris chloride, pH=7.5, 150 mM NaCl) and once with TBS (25 mM tris chloride, pH=7.5, 150 mM NaCl). Color was developed by adding TMB substrate (KPL) to each well. The reaction was quenched with 0.5 M H2SO4. The A450 measured on a 96-well plate reader. The Net A450 was obtained by subtracting the absorbance value for the blank control (no immobilized ligand) from each of the triplicate values obtained for the ligand-epitope interaction. The selectivity assay with full length His6 (SEQ ID NO:28) tagged Akt1, Akt2 and Akt3 was performed following the same protocol, using 25 nM protein instead of 2.5 μM His6 tagged peptide epitope.

Akt [4] = molecular target: T4, Akt (Homo sapiens, UniProt P31751); experiment: OVCAR3 lysate pull-down (immunoprecipitation) assay; assay type: binding; settings: for immunoprecipitation of Akt from OVCAR3 cell lysate: eluents stained with pan-Akt antibody
T4 construct: endogenous in cells; host or cells: OVCAR3
Description: OVCAR3 cells (ATCC) were grown in RPMI-1640 media containing 20% fetal bovine serum. Passage three cells were grown to ˜80% confluence. Cells were lysed with lysis buffer (10 mM Tris-Cl (pH=7.5), 100 mM NaCl, 1% (v/v) Triton X-100, 0.1% SDS (w/v), 0.5% deoxycholate, 1 mM DTT, 1 mM EDTA, 1× PhosStop phosphatase inhibitors (Roche), 1× Complete protease inhibitors (Roche)) and the amount of protein measured using BCA Protein Assay Kit (Pierce Biotechnologies, Inc). Streptavidin-agarose resin solution (EMD) was swelled in TBST (25 mM tris chloride, pH=7.5, 150 mM NaCl, 0.05% Tween-20). Each of the biotinylated ligands was immobilized on the Streptavidin-agarose resin by adding 7.2 μL of 1 mM ligand stock (DMSO) to 10 μL of the swelled streptavidin-agarose resin. For the blank control, the resin was treated with 7.2 μL of 1 mM biotinylated acyl glycine. […] After shaking overnight at 4° C., 50 μM D-biotin was added to the resin to block any remaining sites. The resin was washed with TBST five times, for fifteen minutes each. The resin was then swelled in binding buffer for two hours. To each of the immobilized ligands, 200 μL OVCAR3 cell lysate (1.9 mg/ml) was added. The tubes were shaken at 4° C. for 18 hours. The beads were extensively washed, three times for fifteen minutes in binding buffer, three times (fifteen minutes) in TBST, and three times (fifteen minutes) in TBS to remove unbound proteins. The resin bound proteins were eluted by adding 40 μL of 2×SDS-PAGE sample loading buffer (BioRad) and heating at 95° C. for five minutes. A 1:10 diluted sample of lysate in sample loading buffer was prepared by mixing 1 μL of the sample with 9 μL sample loading buffer and denaturing the sample by heating at 95° C. for five minutes. 10 μL of each sample was loaded on a 12% SDS-PAGE gels (BioRad) and run for 80 minutes at 110 volts. Three identical gels were loaded and run at the same time. One gel was used for Coomassie staining with Coomassie Fluor Orange Protein Gel Stain (Molecular Probes) following the manufacturer's protocol. The two other gels were transferred to nitrocellulose membranes by the semidry transfer method, blocked for two hours at 4° C. with 5% non-fat milk, and treated overnight at 4° C. with a 1:1000 dilution of pan-Akt rabbit monoclonal antibody (Cell Signaling Technology) and a 1:1000 dilution of pS473 Akt rabbit monoclonal antibody (Cell Signaling Technology), respectively, in 0.5% non-fat milk. The membranes were washed and treated for an hour with a 1:10,000 dilution of monoclonal mouse anti-rabbit-HRP secondary antibody (Cell Signaling Technology) in 0.5% milk. After five washes of five minutes each with TBST and one wash of five minutes with TBS, the blots were developed with West Dura ECL substrate (Thermo Scientific) and imaged on film.

Akt [5] = settings: cited from earlier work
Akt2 [6] = molecular target: T1, Akt2; settings: read-out: equilibrium dissociation constant KD; SPR, Akt2 protein as analyte, 1:1 binding model, 10° C.
Description: A Biacore T100 machine was used for SPR experiments. A Streptavidin Chip (Series S, G.E. Healthcare) was conditioned as per manufacturer's recommendation. A stock of 1 mM biotinylated ligand was diluted into HBSP+ Buffer (G.E. Healthcare) to a final concentration of 100 nM and ˜150 RU was immobilized on the chip. Serial dilutions of the Akt2 protein were made in HBSP+ buffer for the experiment with the immobilized N-tL. The solution was flowed over the chip at 50 μL/min. Binding and dissociation were carried out at 10° C. with a contact time of 350 sec, a dissociation time of 390 sec, and a stabilization time of 200 sec, with buffer blanks between each concentration. The response was double corrected, using an unmodified reference flow cell and the response for the 0 concentration of Akt2 on the sample flow cell. The data was fitted to the kinetic Langmuir 1:1 binding model using the Biacore Evaluation software for T100 to calculate the dissociation constant.

T1 sequence (P31751 whole entry, the tested form may be a part): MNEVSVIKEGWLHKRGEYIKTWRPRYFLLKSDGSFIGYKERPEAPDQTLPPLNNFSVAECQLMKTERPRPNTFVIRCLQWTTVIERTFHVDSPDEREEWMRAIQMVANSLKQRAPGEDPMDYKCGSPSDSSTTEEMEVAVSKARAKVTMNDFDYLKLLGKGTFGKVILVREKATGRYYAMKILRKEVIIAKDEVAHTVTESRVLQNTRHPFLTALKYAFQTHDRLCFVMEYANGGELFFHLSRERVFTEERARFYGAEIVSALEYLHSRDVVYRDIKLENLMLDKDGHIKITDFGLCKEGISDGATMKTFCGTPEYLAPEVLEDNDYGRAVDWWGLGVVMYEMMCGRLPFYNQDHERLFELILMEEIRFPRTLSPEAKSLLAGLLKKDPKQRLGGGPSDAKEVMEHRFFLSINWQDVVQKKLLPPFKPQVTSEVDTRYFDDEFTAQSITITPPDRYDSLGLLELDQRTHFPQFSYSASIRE
T4 sequence (P31751 whole entry): as the sequence (P31751 whole entry, the tested form may be a part) above

| Compound | EC50 (Akt2 [1]; densitometry of pGSK3α/β western blot, normalized to DMSO control, read-out: EC50 of inhibition of Akt2 kinase activity) | influence on Akt2 kinase activity (p-GSK-3α/β level) (Akt2 [1]) | binding to the target peptide epitope [2] | selectivity for the Akt2 epitope compared to corresponding regions in Akt1 and Akt3 (Akt2 epitope (450-481)) | EC50 (Akt2 [3]) | immunoprecipitation of Akt from OVCAR3 cell lysate (Akt [4]) | effect on Akt phosphorylation (Akt [5]) | Kd (Akt2 [6]) | affinity (Akt2 [3]; strongest binding triligand) | immunoprecipitation of phosphorylated Akt from OVCAR3 cell lysate (Akt [4]; eluents stained with pS473 Akt antibody) | immunoprecipitation of Akt from OVCAR3 cell lysate (Akt [4]; listed as N-tri1) |
| --- | --- | --- | --- | --- | --- | --- | --- | --- | --- | --- | --- |
| CC(=O)NC(CCCCn1cc(C[C@@H](NC(=O)CCCCn2cc(C[C@@H](NC(=O)[C@@H](Cc3ccccc3)NC(=O)[C@@H](Cc3ccc(O)cc3)NC(=O)CNC(=O)[C@@H](CC(N)=O)NC(=O)[C@H](N)Cc3c[nH]cn3)C(=O)O)nn2)C(=O)N[C@H](Cc2c[nH]c3ccccc23)C(=O)N[C@H](CCCCN)C(=O)N[C@@H](C(=O)N[C@H](CCCCN)C(=O)N[C@H](CCCCNC(=O)CCc2cn(CCCC[C@H](NC(C)=O)C(=O)N[C@H](Cc3c[nH]cn3)C(=O)N[C@H](CC(=O)O)C(=O)NCC(=O)NCC(=O)N[C@H](Cc3ccccc3)C(N)=O)nn2)C(=O)N2CCCCC2)C(C)C)nn1)C(=O)NCCOCCOCCOCCC(=O)NCCNC(=O)CCCC[C@@H]1SC[C@@H]2NC(=O)N[C@@H]21 (some centres unmarked) [C-tL] | 4000 nM and ~4000 nM | inhibits Akt2 kinase activity | best binder; also recorded: shows good binding | significant selectivity for the Akt2 epitope | 125 nM | lower signal than N-tL |  |  |  |  |  |
| Cc1n[nH]c2ccc(-c3cncc(OC[C@@H](N)Cc4c[nH]c5ccccc45)c3)cc12 [A-443654] |  |  |  |  |  |  | paradoxical hyper-phosphorylation of Akt at both Thr308 and Ser473 |  |  |  |  |
| CC(=O)NC(CCCCn1cc(C[C@@H](NC(=O)[C@H](CCCCn2cc(C[C@@H](NC(=O)[C@@H](Cc3ccccc3)NC(=O)[C@@H](Cc3ccc(O)cc3)NC(=O)CNC(=O)[C@@H](CC(N)=O)NC(=O)[C@@H](Cc3c[nH]cn3)NC(=O)[C@H](CCCCn3cc(C[C@@H](NC(C)=O)C(=O)N[C@H](Cc4ccc(O)cc4)C(=O)N[C@H](Cc4ccc(O)cc4)C(=O)N[C@H](CCCNC(=N)N)C(=O)N[C@H](Cc4ccccc4)C(=O)NCC(N)=O)nn3)NC(C)=O)C(=O)O)nn2)NC(C)=O)C(=O)N[C@H](Cc2c[nH]c3ccccc23)C(=O)N[C@H](CCCCN)C(=O)N[C@@H](C(=O)N[C@H](CCCCN)C(=O)N[C@H](CC(C)C)C(N)=O)C(C)C)nn1)C(=O)NCCOCCOCCOCCC(=O)NCCNC(=O)CCCC[C@@H]1SC[C@@H]2NC(=O)N[C@@H]21 (some centres unmarked) [N-tL] |  | activate Akt above baseline; also recorded: activate Akt2 |  |  | 19 nM | immunoprecipitates more Akt, irrespective of its phosphorylation state |  | 25 nM | ~20 nM | immunoprecipitate comparable amounts of active pS473 Akt | more efficient; also recorded: immunoprecipitate Akt2 from OVCAR3 cells |
